Measurements: PMC7864192 (Cancers, 2021)
Like-named read-outs stand apart in the source and are kept apart here.

Key:
[1] = test system: AGCT cell lines; test: Cell viability drug screen (72 h), summary over AGCT cell lines (12 patient-derived, with or without KGN); type: cell-based, human; conditions: median over AGCT cell lines; read-out: median IC50 in monotherapy
Description: (§1) Cell lines were seeded at a density of 500 cells/well in 40 uL in 384-well plates (Corning, NY, USA) with the Multidrop™ cell dispenser (Thermo Fischer Scientific, Waltham, MA, USA) and sealed with Breathe-Easy® membrane (Sigma-Aldrich, St. Louis, MO, USA) to prevent evaporation. The SVOG-3e line was seeded at 1000 cells/well due to contact-dependent growth requirements. For each cell line, three biological repeats and two technical repeats each were performed in order to ensure the validity of the drug screens. […] Subsequently, 11 drugs and 12 drug combinations were dispensed and all wells (excluding blanks and non-DMSO control wells) were normalized to 1% DMSO using the HP Tecan D300e Digital Dispenser (Hewlett-Packard, Palo Alto, CA, USA). All drugs were applied in linear concentration ranges (Table 2), including 16 data points to enable combination drug testing at constant ratios (Table 3). Next, the plates were covered with the Breathe-Easy membrane and incubated. After 72 h, the Multidrop dispensed 15 uL per well of Cell Titer Glo 2.0 (Thermo Fischer Scientific, Waltham, MA, USA) and plates were incubated in the dark for 10 min. After incubation, luminescence excitation was assessed in the Spectramax reader (Molecular Devices, San Jose, CA, USA) (top read, luminescence excitation at 500 nm) and raw data were processed in Microsoft Excel to subtract background luminescence. The Z-factor, a mathematical method used to quantify the quality of a drug screen based on the calculation of the separation band between the values of the positive and negative controls, was utilized to assess the quality of drug screens [54]. Screens with a Z-factor value of >0.5 were used for further analysis.
(§2) Overall cell survival (in %) was plotted against the drug concentration range of each drug (in log10[μM]) using GraphPad Prism 8.3.1. Values that exceeded 100% survival (within +20% biological deviation) were normalized to 100% survival. Similarly, values below 0% cell survival (within −20% biological deviation) were normalized to 0% survival. Values exceeding this deviation were excluded. Dose–response curves were obtained using the model “log(inhibitor) vs. variable slope (normalized response)” to fit the dose–response curves and R^2 values were used to indicate how well the model fit the data (Supplementary Materials Figures S4 and S5). […] The maximum plasma concentration (Cmax) and the plasma concentration at steady state (Css) were used as toxicity thresholds. The Cmax was utilized for drugs in which short, high-dosage time courses are required, while the Css was used for maintenance therapy regimes such as anti-hormonal treatment. […] The IC50 values were calculated based on the Chou–Talalay method using Compusyn software [55]. For anti-hormonal treatment, mostly provided as maintenance therapy, we used IC10 values in addition to the IC50.
(§3) In addition to the 11 monotherapies, 12 drug combinations were tested (Table 3) simultaneously with the individual drug treatments in the same 384-well plate. […] Synergy was evaluated using the mass action law, a systematic analysis assessing dose–response dynamics in a cost-effective manner [56, 57]. The combination index (CI) was used to indicate antagonistic (CI > 1) additive (CI = 1) and synergistic (CI < 1) effects [55].

[2] = cited from earlier work
[3] = test system: KGN cells (AGCT cell line); test: Cell viability drug screen (Cell Titer Glo 2.0, 72 h), mono- and combination therapy, KGN
Description: KGN was cultured in conditions identical to AGCT-patient-derived cell lines.
(§4) Cell lines were seeded at a density of 500 cells/well in 40 uL in 384-well plates (Corning, NY, USA) with the Multidrop™ cell dispenser (Thermo Fischer Scientific, Waltham, MA, USA) and sealed with Breathe-Easy® membrane (Sigma-Aldrich, St. Louis, MO, USA) to prevent evaporation. The SVOG-3e line was seeded at 1000 cells/well due to contact-dependent growth requirements. For each cell line, three biological repeats and two technical repeats each were performed in order to ensure the validity of the drug screens. […] Subsequently, 11 drugs and 12 drug combinations were dispensed and all wells (excluding blanks and non-DMSO control wells) were normalized to 1% DMSO using the HP Tecan D300e Digital Dispenser (Hewlett-Packard, Palo Alto, CA, USA). All drugs were applied in linear concentration ranges (Table 2), including 16 data points to enable combination drug testing at constant ratios (Table 3). Next, the plates were covered with the Breathe-Easy membrane and incubated. After 72 h, the Multidrop dispensed 15 uL per well of Cell Titer Glo 2.0 (Thermo Fischer Scientific, Waltham, MA, USA) and plates were incubated in the dark for 10 min. After incubation, luminescence excitation was assessed in the Spectramax reader (Molecular Devices, San Jose, CA, USA) (top read, luminescence excitation at 500 nm) and raw data were processed in Microsoft Excel to subtract background luminescence. […] Screens with a Z-factor value of >0.5 were used for further analysis.
(§5) Overall cell survival (in %) was plotted against the drug concentration range of each drug (in log10[μM]) using GraphPad Prism 8.3.1. Values that exceeded 100% survival (within +20% biological deviation) were normalized to 100% survival. Similarly, values below 0% cell survival (within −20% biological deviation) were normalized to 0% survival. Values exceeding this deviation were excluded. Dose–response curves were obtained using the model “log(inhibitor) vs. variable slope (normalized response)” to fit the dose–response curves and R^2 values were used to indicate how well the model fit the data (Supplementary Materials Figures S4 and S5). […] The IC50 values were calculated based on the Chou–Talalay method using Compusyn software [55]. For anti-hormonal treatment, mostly provided as maintenance therapy, we used IC10 values in addition to the IC50.

[4] = test system: GCPA028 T1.II patient-derived AGCT cell line; test: Cell viability drug screen (Cell Titer Glo 2.0, 72 h), mono- and combination therapy, GCPA028
Description: as §4, §2, §3

[5] = test system: GCPA007 T2.I patient-derived AGCT cell line; test: Cell viability drug screen (Cell Titer Glo 2.0, 72 h), mono- and combination therapy, GCPA007T2.I; conditions: GCPA007T2I
Description: as §4, §2, §3

[6] = test system: GCPA096 T1.I patient-derived AGCT cell line; test: Cell viability drug screen (Cell Titer Glo 2.0, 72 h), mono- and combination therapy, GCPA096T1.I; conditions: GCPA096T1I
Description: (§6) Cell lines were seeded at a density of 500 cells/well in 40 uL in 384-well plates (Corning, NY, USA) with the Multidrop™ cell dispenser (Thermo Fischer Scientific, Waltham, MA, USA) and sealed with Breathe-Easy® membrane (Sigma-Aldrich, St. Louis, MO, USA) to prevent evaporation. […] For each cell line, three biological repeats and two technical repeats each were performed in order to ensure the validity of the drug screens. […] Subsequently, 11 drugs and 12 drug combinations were dispensed and all wells (excluding blanks and non-DMSO control wells) were normalized to 1% DMSO using the HP Tecan D300e Digital Dispenser (Hewlett-Packard, Palo Alto, CA, USA). […] Next, the plates were covered with the Breathe-Easy membrane and incubated. After 72 h, the Multidrop dispensed 15 uL per well of Cell Titer Glo 2.0 (Thermo Fischer Scientific, Waltham, MA, USA) and plates were incubated in the dark for 10 min. After incubation, luminescence excitation was assessed in the Spectramax reader (Molecular Devices, San Jose, CA, USA) (top read, luminescence excitation at 500 nm) and raw data were processed in Microsoft Excel to subtract background luminescence. The Z-factor, a mathematical method used to quantify the quality of a drug screen based on the calculation of the separation band between the values of the positive and negative controls, was utilized to assess the quality of drug screens [54]. Screens with a Z-factor value of >0.5 were used for further analysis.
as §5, §3

[7] = test system: GCPA096 T1.V patient-derived AGCT cell line; test: Cell viability drug screen (Cell Titer Glo 2.0, 72 h), mono- and combination therapy, GCPA096T1.V; conditions: GCPA096T1V
Description: as §4, §2, §3

[8] = test system: GCPA113 T1.I patient-derived AGCT cell line; test: Cell viability drug screen (Cell Titer Glo 2.0, 72 h), mono- and combination therapy, GCPA113T1.I; conditions: GCPA113T1I
Description: as §6, §5, §3

[9] = test system: GCPA007 T2.IV patient-derived AGCT cell line; test: Cell viability drug screen (Cell Titer Glo 2.0, 72 h), mono- and combination therapy, GCPA007T2.IV; conditions: GCPA007T2IV
Description: as §6, §5, §3

[10] = test system: GCPA096 T1.II patient-derived AGCT cell line; test: Cell viability drug screen (Cell Titer Glo 2.0, 72 h), mono- and combination therapy, GCPA096T1.II; conditions: GCPA096T1II
Description: as §4, §2, §3

[11] = test system: GCPA096 T1.XV patient-derived AGCT cell line; test: Cell viability drug screen (Cell Titer Glo 2.0, 72 h), mono- and combination therapy, GCPA096T1.XV; conditions: GCPA096T1XV
Description: as §1, §2, §3

[12] = test system: GCPA108 T3.IV patient-derived AGCT cell line; test: Cell viability drug screen (Cell Titer Glo 2.0, 72 h), mono- and combination therapy, GCPA108T3.IV; conditions: GCPA108T3IV
Description: as §1, §2, §3

[13] = test system: GCPA113 T1.II patient-derived AGCT cell line; test: Cell viability drug screen (Cell Titer Glo 2.0, 72 h), mono- and combination therapy, GCPA113T1.II; conditions: GCPA113T1II
Description: as §6, §5, §3

[14] = test system: GCPA096 T1.XVI patient-derived AGCT cell line; test: Cell viability drug screen (Cell Titer Glo 2.0, 72 h), mono- and combination therapy, GCPA096T1.XVI; conditions: GCPA096T1XVI
Description: as §4, §2, §3

[15] = test system: GCPA113 T1.III patient-derived AGCT cell line; test: Cell viability drug screen (Cell Titer Glo 2.0, 72 h), mono- and combination therapy, GCPA113T1.III; conditions: GCPA113T1III
Description: as §6, §5, §3

[16] = drug within Carbo+Pacli+6thio2dG
[17] = drug within Carbo+Pacli+Alpelisib
[18] = read-out: IC50 in monotherapy, monotherapy
[19] = in combination Carbo+Pacli+6thio2dG
[20] = in combination Carbo+Pacli+Alpelisib
[21] = read-out: IC50 in monotherapy, single drug, 72 h, unit not given (compared with Cmax/Css in uM)

N.N.O=C([O-])C1(C(=O)[O-])CCC1.[Pt+2] [Carboplatin]
IC50 [1]: 343 µM
Cmax/Css plasma (Log 10) ([2]; human maximum or steady state plasma concentration, log10 of the uM value): 2.13 Log 10
Cmax/Css plasma (Log 10) ([2]; human plasma Cmax/Css, log10 of uM value, from phase I/II clinical trials): 2.13 Log 10
Cmax/Css plasma (Log 10) ([2]; human plasma maximum/steady state concentration, ref phase I/II clinical trials): 2.13 Log 10
Cmax/Css plasma (Log 10) ([2]; human plasma, maximum or steady state concentration, log10 of uM value): 2.13
Cmax/Css plasma (Log 10) ([2]; human plasma, log10 of uM, phase I/II trials): 2.13
Cmax ([2]; read-out: Cmax (maximum drug concentration achieved in plasma), human plasma, phase I/II studies): 135 µM
Cmax ([2]; read-out: Cmax/Css plasma, human maximum or steady state plasma concentration): 135 µM
Cmax ([2]; read-out: Cmax/Css plasma, human plasma Cmax/Css, from phase I/II clinical trials): 135 µM
Cmax ([2]; read-out: Cmax/Css plasma, human plasma maximum/steady state concentration, ref phase I/II clinical trials): 135 µM
Cmax ([2]; read-out: Cmax/Css plasma, human plasma, maximum or steady state concentration): 135 µM
Cmax ([2]; read-out: Cmax/Css plasma, human plasma, phase I/II trials): 135 µM
DRI (Fa=0,5) ([3]; drug within Carbo+Pacli): 5.1507
DRI (Fa=0,5) [3, 16]: 2.192
DRI (Fa=0,5) [3, 17]: 26.6538
IC50 [3, 18]: 297 µM
DRI (Fa=0,5) ([4]; GCPA028, in combination Carbo+Pacli): 0.51
DRI (Fa=0,5) ([4]; GCPA028, in combination Carbo+Pacli+6thio2dG): 0.29
DRI (Fa=0,5) ([4]; GCPA028, in combination Carbo+Pacli+Alpelisib): 41.26
IC50 ([4]; read-out: IC50 in monotherapy, GCPA028, monotherapy): > 500 µM
DRI (Fa=0,5) ([5]; in Carbo+Pacli (10:1)): 4.425
DRI (Fa=0,5) ([5]; in Carbo+Pacli+6thio2dG (10:1:1)): 2.54
DRI (Fa=0,5) ([5]; in Carbo+Pacli+Alpelisib (10:1:2)): 230.67
IC50 ([5]; read-out: IC50 in monotherapy, cell viability 72 h after drug application): > 500 µM
DRI (Fa=0,5) ([6]; in combination Carbo+Pacli): 1.8
DRI (Fa=0,5) [6, 19]: 2.92
DRI (Fa=0,5) [6, 20]: 7.45
IC50 [6, 18]: 257 µM
DRI (Fa=0,5) ([7]; drug within Carbo+Pacli): 1.19
DRI (Fa=0,5) [7, 16]: 4.7
DRI (Fa=0,5) [7, 17]: 17.09
IC50 [7, 21]: > 500 µM
DRI (Fa=0,5) ([8]; in Carbo+Pacli): 1.12
DRI (Fa=0,5) ([8]; in Carbo+Pacli+6thio2dG): 2.55
DRI (Fa=0,5) ([8]; in Carbo+Pacli+Alpelisib): 32.56
IC50 [8, 18]: > 500 µM
DRI (Fa=0,5) ([9]; in combination Carbo+Pacli): 2.73
DRI (Fa=0,5) [9, 19]: 1.36
DRI (Fa=0,5) [9, 20]: 37.92
IC50 [9, 18]: > 500 µM
DRI (Fa=0,5) ([10]; drug within Carbo+Pacli): 1.11
DRI (Fa=0,5) [10, 16]: 2.3
DRI (Fa=0,5) [10, 17]: 5.75
IC50 [10, 21]: 168 µM
DRI (Fa=0,5) ([11]; drug within Carbo+Pacli): 0.85
DRI (Fa=0,5) [11, 16]: 2.35
DRI (Fa=0,5) [11, 17]: 7.71
IC50 [11, 21]: 265 µM
DRI (Fa=0,5) ([12]; in Carbo+Pacli): 1
DRI (Fa=0,5) ([12]; in Carbo+Pacli+6thio2dG): 0.7515
DRI (Fa=0,5) ([12]; in Carbo+Pacli+Alpelisib): 9.921
DRI (Fa=0,5) ([13]; drug within Carbo+Pacli): 1.06
DRI (Fa=0,5) [13, 16]: 1.33
DRI (Fa=0,5) [13, 17]: 4.67
IC50 [13, 18]: 276 µM
DRI (Fa=0,5) ([14]; in Carbo+Pacli): 0.64
DRI (Fa=0,5) ([14]; in Carbo+Pacli+6thio2dG): 0.59
DRI (Fa=0,5) ([14]; in Carbo+Pacli+Alpelisib): 2.39
IC50 [14, 18]: 144 µM
DRI (Fa=0,5) ([15]; drug within Carbo+Pacli): 1.76
DRI (Fa=0,5) [15, 16]: 1.97
DRI (Fa=0,5) [15, 17]: 35.75
IC50 [15, 18]: 358 µM
